In publication PMC9350387, “Synthetic α‐Helical Peptides as Potential Inhibitors of the ACE2 SARS‐CoV‐2 Interaction” (Chembiochem, 2022):

What was measured:
[1] = Fractional α‐helicity by circular dichroism (CD) spectroscopy; format: physicochemical; details: for fH (exp), measured fractional helicity via CD spectroscopy: 60 μM peptide, 10 mM sodium phosphate buffer pH 7.4, 4 °C, CDSSTR algorithm on DichroWeb
[2] = target: Spike RBD RBD (Severe acute respiratory syndrome coronavirus 2), P0DTC2; test: MST; details: modification not given

Ac‐ E QAKTFLDKFNHEAEDLFYQ K ‐NH2 [P‐2‐3]
fH (exp), measured fractional helicity via CD spectroscopy [1]: 5%

Ac‐βHAsp‐[ProM‐5]‐QAKTFLDKFNHEAEDLFYQ‐NH2 [P‐1‐1, βHAsp‐ProM‐5 N‐capped peptide of ACE2 α1 Gln24 to Gln42]
fH (exp), measured fractional helicity via CD spectroscopy [1]: 4%

Ac-QAKTFLDKFNHEAEDLFYQ-NH2 [P‐1‐3, N‐acetylated parent peptide, α1 from Gln24 to Gln42]
fH (exp), measured fractional helicity via CD spectroscopy [1]: ≤1%

Ac‐ E QAK AAA DK AA HEAE AAA YQ K ‐NH2 [P‐3‐3]
fH (exp), measured fractional helicity via CD spectroscopy [1]: 42% | α‐helicity from CD spectra (in words) ([1]; 60 μM, 10 mM sodium phosphate buffer, pH 7.4, 4 °C): pronounced α‐helicity

Ac‐βHAsp‐P‐P‐QAKTFLDKFNHEAEDLFYQ‐NH2 [P‐1‐2]
fH (exp), measured fractional helicity via CD spectroscopy [1]: 4%

EQAKTFLDKFNHEAEDLFYQK [ACE2 alpha1 peptide P-2-1]
Kd [2]: 1210 nM

PPEQAKTFLDKFNHEAEDLFYQK [ACE2 alpha1 peptide P-2-2]
Kd [2]: 62 nM
